Results published in patent US20060074131A1, “Novel crystalline polymorph of venlafaxine hydrochloride and methods for the preparation thereof” (Wyeth, priority 2001, published 2006).
Structures can show the parent of a compound that is named as a salt.

Columns and labels:
[1] = Intrinsic dissolution rate (USP 23 section 711, apparatus 2, compressed pellets in water); assay type: physicochemical; conditions: 900 mL water, 37° C., 100 rpm, pellet with exposed surface area 0.5 cm^2, UV 220 nm
Experimental: The intrinsic dissolution rates of Form II and the crystalline polymorph of the present invention were determined as follows. Pellets of venlafaxine hydrochloride were prepared by compressing 100 mg of each material in a die (Wood's apparatus) at 1000 psi for 1 minute with a Carver press. […] The dissolution rate in 900 mL of water was determined by USP 23 (1995), section 711, page 1791 (Dissolution, apparatus 2), with a rotation speed of 100 rpm at 37° C. The dissolution media was circulated through a 1.0 cm path microflow cell at a flow rate of 10 mL/minute. Ultraviolet absorbance was recorded at 220 nm.

[2] = Thermogravimetric analysis (TGA); assay type: physicochemical; conditions: heated from 28 to 238° C. at 10° C./minute under nitrogen purge
Experimental: A sample of the venlafaxine hydrochloride crystalline polymorph of the present invention was heated from 28 to 238° C. at a scan rate of 10° C./minute in a Pyris I TGA, available from Perkin-Elmer of Shelton, Conn., under a nitrogen purge.

monoamine oxidase = conditions: cited from earlier work
muscaranic receptors = conditions: in vitro; cited from earlier work
histaminergic receptors = conditions: in vitro; cited from earlier work
adrenergic receptors = conditions: in vitro; cited from earlier work

## COc1ccc(C(CN(C)C)C2(O)CCCCC2)cc1 (stereo not drawn) [Form II, venlafaxine hydrochloride]
[1]
  intrinsic dissolution rate: 24.7 mg/cm^2-minute

## COc1ccc(C(CN(C)C)C2(O)CCCCC2)cc1 (stereo not drawn) [venlafaxine hydrochloride]
[2]
  weight loss on heating (TGA): lost little weight until it was heated near the melting point

## COc1ccc(C(CN(C)C)C2(O)CCCCC2)cc1 (stereo not drawn) [venlafaxine, 1-[2-(dimethylamino)-1-(4-methoxyphenyl)ethyl]cyclohexanol]
Monoamine oxidase
  inhibitory activity on monoamine oxidase: no inhibitory activity
Muscaranic receptors
  affinity for muscaranic receptors: virtually no affinity
Histaminergic receptors
  affinity for histaminergic receptors: virtually no affinity
Adrenergic receptors
  affinity for adrenergic receptors: virtually no affinity
